Like-named read-outs stand apart in the source and are kept apart here.
System: Direct Seeded Rice and weed species
Assay: Postemergence herbicidal activity in direct seeded rice, visual rating after 20-22 days and probit GR20/GR50/GR80/GR90 (Table 14)
Format: in vivo
Details: for pest or weed control at 17.5 g/ha / pest or weed control at 35 g/ha / pest or weed control at 70 g/ha: post-emergence, 504 h, postemergence; for pest or weed control at 17.5 g/ha: 17.5 g ai/ha; for pest or weed control at 35 g/ha: 35 g ai/ha; for pest or weed control at 70 g/ha: 70 g ai/ha
Method in brief: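 Visual injury scores (0 = none, 100 = complete kill) taken 20-22 days after treatment and fitted by probit analysis over several doses to give GR20/GR50/GR80/GR90. Plants at 2nd–3rd true leaf in pH about 8.1 loam–sand mix received track-sprayer applications of 187 L/ha containing 1.25% (v/v) crop oil concentrate.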

[1] = BRAPP (broadleaf signalgrass, Brachiaria platyphylla), read-out: Visual Growth Reduction (%) 21 Days After Application BRAPP
[2] = CYPDI (small-flower flatsedge, Cyperus difformis), read-out: Visual Growth Reduction (%) 21 Days After Application CYPDI
[3] = CYPES (yellow nutsedge, Cyperus esculentus), read-out: Visual Growth Reduction (%) 21 Days After Application CYPES
[4] = CYPIR (rice flatsedge, Cyperus iria), read-out: Visual Growth Reduction (%) 21 Days After Application CYPIR
[5] = DIGSA (large crabgrass, Digitaria sanguinalis), read-out: Visual Growth Reduction (%) 21 Days After Application DIGSA
[6] = ECHCG (barnyardgrass, Echinochloa crus-galli), read-out: Visual Growth Reduction (%) 21 Days After Application ECHCG
[7] = ECHCO (junglerice, Echinochloa colonum), read-out: Visual Growth Reduction (%) 21 Days After Application ECHCO
[8] = LEFCH (Chinese sprangletop, Leptochloa chinensis), read-out: Visual Growth Reduction (%) 21 Days After Application LEFCH
[9] = ORYSJ (Oryza sativa, rice crop), read-out: Visual Growth Reduction (%) 21 Days After Application ORYSJ
[10] = ORYSK (Oryza sativa, rice crop), read-out: Visual Growth Reduction (%) 21 Days After Application ORYSK
[11] = SCPJU (Japanese bulrush, Schoenoplectus juncoides Roxb.), read-out: Visual Growth Reduction (%) 21 Days After Application SCPJU
[12] = SEBEX (hemp sesbania, Sesbania exaltata), read-out: Visual Growth Reduction (%) 21 Days After Application SEBEX

## COc1c(N)nc(-c2ccc3c(c2F)OC(F)(F)O3)nc1C(=O)O [Compound 66]
BRAPP (Brachiaria platyphylla), probit analysis, dose for 50 percent growth reduction
  GR50 BRAPP: 2 g ai/ha
BRAPP (Brachiaria platyphylla), probit analysis, dose for 80 percent growth reduction
  GR80 BRAPP: 7 g ai/ha
BRAPP (Brachiaria platyphylla), probit analysis, dose for 90 percent growth reduction
  GR90 BRAPP: 16 g ai/ha
CYPDI (Cyperus difformis), probit analysis, dose for 50 percent growth reduction
  GR50 CYPDI: 0.42 g ai/ha
CYPDI (Cyperus difformis), probit analysis, dose for 80 percent growth reduction
  GR80 CYPDI: 3 g ai/ha
CYPDI (Cyperus difformis), probit analysis, dose for 90 percent growth reduction
  GR90 CYPDI: 6 g ai/ha
CYPES (Cyperus esculentus), probit analysis, dose for 50 percent growth reduction
  GR50 CYPES: 0.0001 g ai/ha
CYPES (Cyperus esculentus), probit analysis, dose for 80 percent growth reduction
  GR80 CYPES: 0.0001 g ai/ha
CYPES (Cyperus esculentus), probit analysis, dose for 90 percent growth reduction
  GR90 CYPES: 0.0001 g ai/ha
CYPIR (Cyperus iria), probit analysis, dose for 50 percent growth reduction
  GR50 CYPIR: 9 g ai/ha
CYPIR (Cyperus iria), probit analysis, dose for 80 percent growth reduction
  GR80 CYPIR: 15 g ai/ha
CYPIR (Cyperus iria), probit analysis, dose for 90 percent growth reduction
  GR90 CYPIR: 19 g ai/ha
DIGSA (Digitaria sanguinalis), probit analysis, dose for 50 percent growth reduction
  GR50 DIGSA: 2 g ai/ha
DIGSA (Digitaria sanguinalis), probit analysis, dose for 80 percent growth reduction
  GR80 DIGSA: 21 g ai/ha
DIGSA (Digitaria sanguinalis), probit analysis, dose for 90 percent growth reduction
  GR90 DIGSA: 77 g ai/ha
ECHCG (Echinochloa crus-galli), probit analysis, dose for 50 percent growth reduction
  GR50 ECHCG: 3 g ai/ha
ECHCG (Echinochloa crus-galli), probit analysis, dose for 80 percent growth reduction
  GR80 ECHCG: 7 g ai/ha
ECHCG (Echinochloa crus-galli), probit analysis, dose for 90 percent growth reduction
  GR90 ECHCG: 12 g ai/ha
ECHCO (Echinochloa colonum), probit analysis, dose for 50 percent growth reduction
  GR50 ECHCO: 2 g ai/ha
ECHCO (Echinochloa colonum), probit analysis, dose for 80 percent growth reduction
  GR80 ECHCO: 6 g ai/ha
ECHCO (Echinochloa colonum), probit analysis, dose for 90 percent growth reduction
  GR90 ECHCO: 11 g ai/ha
LEFCH (Leptochloa chinensis), probit analysis, dose for 50 percent growth reduction
  GR50 LEFCH: 105 g ai/ha
LEFCH (Leptochloa chinensis), probit analysis, dose for 80 percent growth reduction
  GR80 LEFCH: 227 g ai/ha
LEFCH (Leptochloa chinensis), probit analysis, dose for 90 percent growth reduction
  GR90 LEFCH: 339 g ai/ha
ORYSJ (Oryza sativa, rice crop), probit analysis, dose for 20 percent growth reduction
  GR20 ORYSJ: 2 g ai/ha
ORYSK (Oryza sativa, rice crop), probit analysis, dose for 20 percent growth reduction
  GR20 ORYSK: 11 g ai/ha
SCPJU (Schoenoplectus juncoides Roxb.), probit analysis, dose for 50 percent growth reduction
  GR50 SCPJU: 0.0001 g ai/ha
SCPJU (Schoenoplectus juncoides Roxb.), probit analysis, dose for 80 percent growth reduction
  GR80 SCPJU: 0.0001 g ai/ha
SCPJU (Schoenoplectus juncoides Roxb.), probit analysis, dose for 90 percent growth reduction
  GR90 SCPJU: 0.0001 g ai/ha
SEBEX (Sesbania exaltata), probit analysis, dose for 50 percent growth reduction
  GR50 SEBEX: 8 g ai/ha
SEBEX (Sesbania exaltata), probit analysis, dose for 80 percent growth reduction
  GR80 SEBEX: 19 g ai/ha
SEBEX (Sesbania exaltata), probit analysis, dose for 90 percent growth reduction
  GR90 SEBEX: 28 g ai/ha
[1]
  pest or weed control at 17.5 g/ha: 85 to 94%
  pest or weed control at 35 g/ha: 95 to 100%
  pest or weed control at 70 g/ha: 95 to 100%
[2]
  pest or weed control at 17.5 g/ha: 95 to 100%
  pest or weed control at 35 g/ha: 95 to 100%
  pest or weed control at 70 g/ha: 95 to 100%
[3]
  pest or weed control at 17.5 g/ha: 95 to 100%
  pest or weed control at 35 g/ha: 95 to 100%
  pest or weed control at 70 g/ha: 95 to 100%
[4]
  pest or weed control at 17.5 g/ha: 95 to 100%
  pest or weed control at 35 g/ha: 95 to 100%
  pest or weed control at 70 g/ha: 95 to 100%
[5]
  pest or weed control at 17.5 g/ha: 75 to 84%
  pest or weed control at 35 g/ha: 85 to 94%
  pest or weed control at 70 g/ha: 85 to 94%
[6]
  pest or weed control at 17.5 g/ha: 95 to 100%
  pest or weed control at 35 g/ha: 95 to 100%
  pest or weed control at 70 g/ha: 95 to 100%
[7]
  pest or weed control at 17.5 g/ha: 95 to 100%
  pest or weed control at 35 g/ha: 95 to 100%
  pest or weed control at 70 g/ha: 95 to 100%
[8]
  pest or weed control at 17.5 g/ha: 0 to 29%
  pest or weed control at 35 g/ha: 0 to 29%
  pest or weed control at 70 g/ha: 30 to 44%
[9]
  pest or weed control at 17.5 g/ha: 60 to 74%
  pest or weed control at 35 g/ha: 85 to 94%
  pest or weed control at 70 g/ha: 85 to 94%
[10]
  pest or weed control at 17.5 g/ha: 30 to 44%
  pest or weed control at 35 g/ha: 60 to 74%
  pest or weed control at 70 g/ha: 85 to 94%
[11]
  pest or weed control at 17.5 g/ha: 95 to 100%
  pest or weed control at 35 g/ha: 95 to 100%
  pest or weed control at 70 g/ha: 95 to 100%
[12]
  pest or weed control at 17.5 g/ha: 60 to 74%
  pest or weed control at 35 g/ha: 95 to 100%
  pest or weed control at 70 g/ha: 95 to 100%

— patent publication US9149038B2, “4-amino-6-(heterocyclic)picolinates and 6-amino-2-(heterocyclic)pyrimidine-4-carboxylates and their use as herbicides” (Dow AgroSciences LLC, priority 2013, dated 2015)
